The target of assay [1] is T1, KPC-2 (Klebsiella pneumoniae, UniProt Q9F663).
T1 construct: made in house; host or cells: E. coli BL21(DE3)
In words: β-lactamase enzyme inhibition assay, KPC-2 (imipenem substrate). Type of assay: biochemical. The note with it: Class A; imipenem substrate, 300 nm; read-out: KPC-2. As to the method: (§1) For SHV-5, Kpc-2, p99AmpC and OXA-1 β-lactamases, E. coli BL21(DE3) bacterial cells carrying expression plasmids (expressed as native untagged proteins) for the individual β-lactamases were grown in 1 L of Superbroth (Teknova Inc. Hollister, Calif.) supplemented with 100 μg/ml kanamycin selection and 1×5052 (0.5% glycerol, 0.05% glucose and 0.2% α-lactose) at 35° C. for 18-20 hours. Cells were harvested by centrifugation (4,000×g, 4° C., 20 min), resuspended in 50 ml of 10 mM HEPES pH 7.5 ( 1/20 of the initial volume). The cells were lysed by sonication (5 pulses of 45 seconds) at 45 W on ice. The lysates were clarified by centrifugation at 10,000×g for 40 minutes at 4° C. Samples were diluted 5-fold in 50 mM sodium acetate pH 5.0, stored overnight at 4° C., after which they were centrifuged at 10,000×g for 30 minutes to clarify, and filtered through 0.45 μm filters. The samples were loaded onto a 5 ml Capto S sepharose cation exchange column (GE Healthcare) pre-equilibrated with 50 mM sodium acetate pH 5.0. The column was washed with 5 column volumes of 50 mM sodium acetate pH 5.0 to wash out unbound protein and a linear gradient of NaCl (0 to 500 mM) was used to elute the protein (over 16 CV) from the column. Fractions were assayed for β-lactamase activity using Centa (Calbiochem, Gibbstown, N.J.) or Nitrocefin (EMD Millipore chemicals, Darmstadt, Germany) as a reporter β-lactamase substrate for activity in the isolated fractions. Active fractions were pooled, concentrated and further purified by gel filtration chromatography on a Superdex 75 prep grade gel filtration column (GE Healthcare, Piscataway, N.J.) pre-equilibrated in 50 mM Hepes pH 7.5, 150 mM NaCl. Active fractions were pooled concentrated, quantitated by BCA protein determination (Thermo Scientific, Rockford, Ill.), dialyzed into PBS and frozen at −80° C. in 20% glycerol until use.
(§2) An equal volume of diluted enzyme stock was added, and the plates were incubated at 37° C. for 15 min. Nitrocefin was used as substrate for p99 AmpC, VIM-2 and OXA-1 and dispensed into each well at a final concentration of 100 μM. Absorbance at 486 nm was immediately monitored for 10 min using a Biotek Powerwave XS2 microplate spectrophotometer using the GEN5 software package (Biotek Instruments, Winooski Vt.). In an analogous fashion, imipenem was used as substrate for Kpc-2 and Cefotaxime was used for SHV-5, while changes in absorbance upon hydrolysis of the β-lactam ring were monitored at 300 nm and 260 nm respectively in UV-transparent 96-well microtiter assay plates. Maximum rates of hydrolysis were compared to those in control wells (without inhibitors), and percentages of enzyme inhibition were calculated for each concentration of inhibitor. The concentration of inhibitor needed to reduce the initial rate of hydrolysis of substrate by 50% (IC50) was calculated as the residual activity of β-lactamase at 486 nm using GraFit version 7 kinetics software package (Erithacus Software, Surrey, UK).
(§3) Using the methodology described above, examples of the current invention were evaluated for their ability to inhibit β-lactamase enzymes from all four Ambler classifications (A through D). […] NT=Not tested.

Assay [2] relates to K. pneumoniae expressing the Class A carbapenemase KPC-2. In words: Broth microdilution MIC assay with meropenem, K. pneumoniae KPC-2. The note with it: Fixed Mero (meropenem) 4 μg/mL; K. p. 156319 KPC-3. It is filed as cell-based. From the text: (§4) To determine the ability of test compounds to potentiate the inhibition of the growth of bacterial strains that produce beta-lactamase enzymes in the presence of a β-lactam antibiotic, classic cell based broth microdilution MIC assays were employed. Six bacteria strains producing beta-lactamase enzymes were used: E. coli expressing the Class A Extended Spectrum Beta-Lactamase (ESBL) CTX-M-15, E. cloacae expressing the Class C P99, K. pneumoniae expressing the Class A carbapenemase KPC-2, P. aeruginosa expressing the Class B carbapenemase VIM-2, K. pneumoniae expressing the class A carbapenemase KPC-2 and the class B carbapenemase VIM-4, and K. pneumoniae producing the Class D carbapenemase OXA-48. The assay was conducted in Cation Adjusted Mueller Hinton Broth (CAMHB, BD #212322, BD Diagnostic Systems, Sparks, Md.). Bacteria strains were grown for 3-5 hours in CAMBH broth. Test compounds (Examples 1-94) were added to a microtiter plate in 2-fold serial dilutions in CAMHB in a final concentration range of 16 μg/mL to 0.125 μg/ml. An overlay of CAMHB containing a Beta-lactam was added to the compounds at a final static concentration of 4 μg/ml. […] In addition to the titration of test compounds the MICs of a panel of control beta-lactams is also tested to ensure the strains are behaving consistently from test to test. Once the test compound and antibiotics are added the plates can be inoculated according to CLSI broth microdilution method. After inoculation the plates are incubated for 16-20 hours at 37° C. then the Minimal Inhibitory Concentration (MIC) of the test compound is determined visually.
(§5) Using the methodology described above, examples of the current invention were evaluated for their ability to inhibit the growth of β-lactamase-producing bacteria in the presence of a β-lactam antibiotic.
(Broth dilution looks for growth in wells or tubes with falling amounts of substance.)

For assay [3], the target named is T2, AmpC (Enterobacter cloacae, UniProt P05364).
T2 construct: made in house; host or cells: E. coli BL21(DE3)
T2 sequence (P05364 21-381): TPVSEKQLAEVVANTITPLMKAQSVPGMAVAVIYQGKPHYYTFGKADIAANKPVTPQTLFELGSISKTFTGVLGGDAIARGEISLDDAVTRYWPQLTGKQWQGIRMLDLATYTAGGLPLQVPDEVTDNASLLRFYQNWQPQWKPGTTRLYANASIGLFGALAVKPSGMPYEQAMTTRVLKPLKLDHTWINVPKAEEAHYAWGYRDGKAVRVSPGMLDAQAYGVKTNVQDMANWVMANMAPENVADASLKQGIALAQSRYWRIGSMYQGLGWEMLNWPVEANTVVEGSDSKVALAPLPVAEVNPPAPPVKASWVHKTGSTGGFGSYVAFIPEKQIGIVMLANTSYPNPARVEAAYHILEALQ
In words: β-lactamase enzyme inhibition assay, p99 AmpC (nitrocefin substrate). Type of assay: biochemical. As to the method:
as §1, §2, §3

The test system of assay [4] is K. pneumoniae expressing the class A carbapenemase KPC-2 and the class B carbapenemase VIM-4. The assay can be described thus: Broth microdilution MIC assay with meropenem, K. pneumoniae KPC-2 and VIM-4. The note with it: Fixed Mero (meropenem) 4 μg/mL; K. p. A-1797 KPC-2 VIM-4. Type of assay: cell-based.
Text: as §4, §5

The test system of assay [5] is E. coli expressing the Class A Extended Spectrum Beta-Lactamase (ESBL) CTX-M-15. The assay can be described thus: Broth microdilution MIC assay with ceftazidime, E. coli CTX-M-15. The note with it: Fixed CAZ (ceftazidime) 4 μg/mL; E. coli ESBL4 CTX-M-15. It is filed as cell-based.
Text: as §4, §5

For assay [6], the system named is P. aeruginosa expressing the Class B carbapenemase VIM-2. In words: Broth microdilution MIC assay with meropenem, P. aeruginosa VIM-2. It is filed as cell-based. The note with it: Fixed Mero (meropenem) 4 μg/mL; P. aerug. 2775 VIM-2.
Text: as §4, §5

For assay [7], the target named is OXA-48 (UniProt Q6XEC0). In words: β-lactamase enzyme inhibition assay, Class D oxacillinase. Particulars: read-out: OXA-48. It is filed as biochemical.
In assay [8] the test system is K. pneumoniae producing the Class D carbapenemase OXA-48. The assay can be described thus: Broth microdilution MIC assay with meropenem, K. pneumoniae OXA-48. It is filed as cell-based. Particulars: Fixed Mero (meropenem) 4 μg/mL; K. p. 11978 OXA-48.
Text: as §4, §5

The target of assay [9] is T3, VIM-2 (Escherichia coli, UniProt Q5U7L7).
T3 construct: made in house; host or cells: E. coli BL21(DE3)
In words: β-lactamase enzyme inhibition assay, VIM-2 (nitrocefin substrate). It is filed as biochemical. Particulars: Class B; nitrocefin substrate, 486 nm; read-out: VIM-2. As to the method:
For Vim-2 metallo β-lactamase, the procedure was identical with the following exceptions, first the protein was not pH adjusted to pH 5 with 50 mM sodium acetate, second, the chromatography step was changed to a 5 ml Q sepharose anion exchange column pre-equilibrated with 50 mM Hepes pH 7.5, and elution of the protein was achieved by a linear gradient of NaCl (0-600 mM). Finally, the VIM-2 purification required a second run (3rd step) on the Q sepharose anion exchange column to achieve acceptable purity (>90%).
as §2, §3

The target in assay [10] is T4, SHV-5 (Klebsiella pneumoniae, UniProt P0A3M1).
T4 construct: made in house; host or cells: E. coli BL21(DE3)
T4 sequence (P0A3M1 22-286): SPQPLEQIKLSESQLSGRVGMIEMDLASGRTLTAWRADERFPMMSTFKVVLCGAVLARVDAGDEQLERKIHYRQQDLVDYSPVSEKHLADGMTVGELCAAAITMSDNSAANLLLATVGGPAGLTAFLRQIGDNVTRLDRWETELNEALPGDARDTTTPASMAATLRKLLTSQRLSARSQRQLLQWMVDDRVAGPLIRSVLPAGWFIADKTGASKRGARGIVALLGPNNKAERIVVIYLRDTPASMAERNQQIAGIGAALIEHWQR
The assay can be described thus: β-lactamase enzyme inhibition assay, SHV-5 (cefotaxime substrate). It is filed as biochemical. As to the method:
as §1, §2, §3

T1 sequence (Q9F663 25-293, looked up): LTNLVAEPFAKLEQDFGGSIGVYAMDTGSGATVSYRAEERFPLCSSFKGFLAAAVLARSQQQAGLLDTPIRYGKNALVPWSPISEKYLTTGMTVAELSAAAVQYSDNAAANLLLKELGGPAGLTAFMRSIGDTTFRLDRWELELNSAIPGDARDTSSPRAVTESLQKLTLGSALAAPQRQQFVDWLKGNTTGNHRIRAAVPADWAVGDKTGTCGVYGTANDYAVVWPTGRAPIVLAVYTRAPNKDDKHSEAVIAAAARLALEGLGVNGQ

Take `NCCCc1c(CN)nnn1CC(=O)N[C@H]1Cc2cccc(C(=O)O)c2OB1O` [Example 110, (R)-3-(2-(4-(aminomethyl)-5-(3-aminopropyl)-1H-1,2,3-triazol-1-yl)acetamido)-2-hydroxy-3,4-dihydro-2H-benzo[e][1,2]oxaborinine-8-carboxylic acid]: the IC50 in assay [1] was 100 to 1000 nM; in assay [3], 100 to 1000 nM; in [7], 100 to 1000 nM; in assay [9] it was < 100 nM; in assay [10], 1000 to 10000 nM. In addition, the “MIC (μg/mL) of Exemplary Compounds in presence of fixed β-lactams: K. p. 156319 KPC-3” value (shortened to “MIC (μg/mL) … K. p. 156319 KPC-3”) in assay [2] is on record as “C (C represents an MIC of <1 μg/mL)”. Moreover, in assay [4], the “MIC (μg/mL) of Exemplary Compounds in presence of fixed β-lactams: K. p. A-1797 KPC-2 VIM-4” value (“MIC (μg/mL) … K. p. A-1797 KPC-2 VIM-4” below) is listed as “C (C represents an MIC of <1 μg/mL)”. Besides, in assay [5], the “MIC (μg/mL) of Exemplary Compounds in presence of fixed β-lactams: E. coli ESBL4 CTX-M-15” value (“MIC (μg/mL) … E. coli ESBL4 CTX-M-15” below) is “C (C represents an MIC of <1 μg/mL)”. The “MIC (μg/mL) of Exemplary Compounds in presence of fixed β-lactams: P. aerug. 2775 VIM-2” value (from here on “MIC (μg/mL) … P. aerug. 2775 VIM-2”) in assay [6] is on record as “C (C represents an MIC of <1 μg/mL)”. The “MIC (μg/mL) of Exemplary Compounds in presence of fixed β-lactams: K. p. 11978 OXA-48” value (“MIC (μg/mL) … K. p. 11978 OXA-48” for short) in [8] was “B (B represents an MIC between 1 and 16 μg/mL inclusive)”.
Turning to `O=C(Cn1cc(CCO)nn1)N[C@H]1Cc2cccc(C(=O)O)c2OB1O` [Example 5, (R)-2-hydroxy-3-(2-(4-(2-hydroxyethyl)-11,2,3-triazol-1-yl)acetamido)-3,4-dihydro-2H-benzo[e][1,2]oxaborinine-8-carboxylic acid], the IC50 is < 100 nM in assay [1]; < 100 nM in [3]; 100 to 1000 nM in [7]; 10000 to 100000 nM in [9]; < 100 nM in assay [10]. For the same molecule, the “MIC (μg/mL) … K. p. 156319 KPC-3” value in [2] was “B (B represents an MIC between 1 and 16 μg/mL inclusive)”. Also, the “MIC (μg/mL) … K. p. A-1797 KPC-2 VIM-4” value in assay [4] was “B (B represents an MIC between 1 and 16 μg/mL inclusive)”. In addition, the “MIC (μg/mL) … E. coli ESBL4 CTX-M-15” value in [5] was “C (C represents an MIC of <1 μg/mL)”. Moreover, the “MIC (μg/mL) … P. aerug. 2775 VIM-2” value in [6] is “B (B represents an MIC between 1 and 16 μg/mL inclusive)”. For the same molecule, the “MIC (μg/mL) … K. p. 11978 OXA-48” value in assay [8] is “B (B represents an MIC between 1 and 16 μg/mL inclusive)”.
Turning to `O=C(Cn1ccc(B(O)O)n1)N[C@H]1Cc2cccc(C(=O)O)c2OB1O` [Example 116, (R)-3-(2-(3-borono-1H-pyrazol-1-yl)acetamido)-2-hydroxy-3,4-dihydro-2H-benzo[e][1,2]oxaborinine-8-carboxylic acid], the IC50 was < 100 nM in [1]; < 100 nM in assay [3]; 100 to 1000 nM in assay [7]; 1000 to 10000 nM in [9]; < 100 nM in assay [10]. The “MIC (μg/mL) … K. p. 156319 KPC-3” value in [2] was “B (B represents an MIC between 1 and 16 μg/mL inclusive)”. The “MIC (μg/mL) … K. p. A-1797 KPC-2 VIM-4” value in [4] was “B (B represents an MIC between 1 and 16 μg/mL inclusive)”. Moreover, the “MIC (μg/mL) … E. coli ESBL4 CTX-M-15” value in [5] is listed as “C (C represents an MIC of <1 μg/mL)”. For the same molecule, the “MIC (μg/mL) … P. aerug. 2775 VIM-2” value in [6] is given as “C (C represents an MIC of <1 μg/mL)”. The “MIC (μg/mL) … K. p. 11978 OXA-48” value in [8] is “B (B represents an MIC between 1 and 16 μg/mL inclusive)”.

These data come from US11046716B2, “Beta-lactamase inhibitors” (priority 2015, dated 2021).
